Converted amounts (≈) assume the structure as drawn.
Columns and labels:
[1] = system: CCRF-CEM; test: Selectivity index towards HIV-2 (ROD) in CEM cells; type: functional, Homo sapiens
[2] = system: CCRF-CEM; test: Concentration of compound required for protection of CEM cells from HIV-2 (ROD) induced cytopathogenicity; type: functional, cell-based; conditions: Homo sapiens
[3] = system: MT4; test: Maximum protection (%) of MT-4 cells from HIV-1 (IIIB) induced cytopathogenicity; value ranges from 57-110%; type: functional, Homo sapiens
[4] = system: MT4; test: Selectivity index towards HIV-1 (IIIB) in MT-4 cells; type: functional, Homo sapiens
[5] = system: MT4; test: Maximum protection (%) of MT-4 cells from HIV-2 (ROD) induced cytopathogenicity; value ranges from 43-78%; type: functional, Homo sapiens
[6] = system: CCRF-CEM; test: Concentration of compound required for protection of CEM cells from HIV-1 (IIIB) induced cytopathogenicity; type: functional, cell-based; conditions: Homo sapiens
[7] = system: MT4; test: Concentration of compound that reduces the viability of mock-infected MT-4 cells by 50%; type: functional; conditions: Homo sapiens
[8] = system: MT4; test: Concentration required for protection of MT-4 cells from HIV-2 (ROD) induced cytopathogenicity in MTT assay; type: functional, cell-based; conditions: Homo sapiens
[9] = Concentration of compound required for reduction of p24 production in HIV-1 (IIIB) infected peripheral blood mononuclear cells; type: functional; conditions: Homo sapiens
[10] = system: MT4; test: Concentration required for protection of MT-4 cells from HIV-1 (IIIB) induced cytopathogenicity in MTT assay; type: functional, cell-based; conditions: Homo sapiens
[11] = Concentration of compound that reduces the viability of mock-infected peripheral blood mononuclear cells by 50%; type: functional; conditions: Homo sapiens
[12] = system: CCRF-CEM; test: Concentration of compound that reduces the viability of mock-infected CEM cells by 50%; type: functional; conditions: Homo sapiens
[13] = system: CCRF-CEM; test: Selectivity index towards HIV-1 (IIIB) in CEM cells; type: functional, Homo sapiens
[14] = Selectivity index towards HIV-1 (IIIB) in peripheral blood mononuclear cells; type: functional, Homo sapiens
[15] = system: MT4; test: Selectivity index towards HIV-2 (ROD) in MT-4 cells; type: functional, Homo sapiens
[16] = system: MT4; test: Maximum protection (%) of MT-4 cells from HIV-2 (ROD) induced cytopathogenicity; value ranges from 51-81%; type: functional, Homo sapiens
[17] = system: MT4; test: Maximum protection (%) of MT-4 cells from HIV-1 (IIIB) induced cytopathogenicity; value ranges from 25-30%; type: functional, Homo sapiens
[18] = system: MT4; test: Maximum protection (%) of MT-4 cells from HIV-1 (IIIB) induced cytopathogenicity; value ranges from 65-86%; type: functional, Homo sapiens
[19] = system: MT4; test: Maximum protection (%) of MT-4 cells from HIV-2 (ROD) induced cytopathogenicity; value ranges from 15-21%; type: functional, Homo sapiens
[20] = system: MT4; test: Maximum protection (%) of MT-4 cells from HIV-1 (IIIB) induced cytopathogenicity; value ranges from 60-91%; type: functional, Homo sapiens
[21] = system: MT4; test: Maximum protection (%) of MT-4 cells from HIV-2 (ROD) induced cytopathogenicity; value ranges from 51-55%; type: functional, Homo sapiens
[22] = system: MT4; test: Maximum protection (%) of MT-4 cells from HIV-2 (ROD) induced cytopathogenicity; value ranges from 17-31%; type: functional, Homo sapiens
[23] = system: MT4; test: Maximum protection (%) of MT-4 cells from HIV-1 (IIIB) induced cytopathogenicity; value ranges from 7-30%; type: functional, Homo sapiens
[24] = system: MT4; test: Maximum protection (%) of MT-4 cells from HIV-1 (IIIB) induced cytopathogenicity; value ranges from 55-118%; type: functional, Homo sapiens
[25] = system: MT4; test: Maximum protection (%) of MT-4 cells from HIV-2 (ROD) induced cytopathogenicity; value ranges from 58-83%; type: functional, Homo sapiens
[26] = system: MT4; test: Maximum protection (%) of MT-4 cells from HIV-2 (ROD) induced cytopathogenicity; value ranges from 17-27%; type: functional, Homo sapiens
[27] = system: MT4; test: Maximum protection (%) of MT-4 cells from HIV-1 (IIIB) induced cytopathogenicity; value ranges from 16-21%; type: functional, Homo sapiens
[28] = system: MT4; test: Maximum protection (%) of MT-4 cells from HIV-1 (IIIB) induced cytopathogenicity; value ranges from 35-59%; type: functional, Homo sapiens
[29] = system: MT4; test: Maximum protection (%) of MT-4 cells from HIV-2 (ROD) induced cytopathogenicity; value ranges from 60-64%; type: functional, Homo sapiens
[30] = system: MT4; test: Maximum protection (%) of MT-4 cells from HIV-1 (IIIB) induced cytopathogenicity; value ranges from 0-1%; type: functional, Homo sapiens
[31] = system: MT4; test: Maximum protection (%) of MT-4 cells from HIV-2 (ROD) induced cytopathogenicity; type: functional, Homo sapiens
[32] = system: MT4; test: Maximum protection (%) of MT-4 cells from HIV-1 (IIIB) induced cytopathogenicity; value ranges from 4-8%; type: functional, Homo sapiens

For `Cn1cc(C(=O)O)c(=O)c2cc(N)c(N3CCN(c4cccc(C(F)(F)F)c4)CC3)cc21`, the Selectivity index [1] was 40, the EC50 [2] was 0.2 µg/mL (≈ 0.448 µM) and the Protection [3] was less than 110%. The Selectivity index [4] was 7, the Protection [5] was less than 78% and the EC50 [6] was 0.09 µg/mL (≈ 0.202 µM). The CC50 [7] was 2.18 µg/mL (≈ 4.88 µM), the EC50 [8] was no less than 0.31 µg/mL and the EC50 [9] was 0.05 µg/mL (≈ 0.112 µM). For the same compound, the EC50 [10] was 0.31 µg/mL (≈ 0.694 µM), the CC50 [11] was 1.55 µg/mL (≈ 3.47 µM) and the CC50 [12] was 8 µg/mL (≈ 17.9 µM). The Selectivity index [13] was 89, the Selectivity index [14] was 28 and the Selectivity index [15] was “<=7”.

With `Cn1cc(C(=O)O)c(=O)c2cc(N)c(N3CCN(c4nc5ccccc5s4)CC3)cc21` the Protection [16] was less than 81%, the Protection [17] was less than 30% and the Selectivity index [4] was less than 1. For the same compound, the CC50 [7] was 0.0054 µg/mL (≈ 0.0124 µM), the EC50 [8] was 0.0011 µg/mL (≈ 0.00253 µM) and the EC50 [10] was greater than 0.0054 µg/mL. For the same compound, the Selectivity index [15] was 5.1.

Work on `Cn1cc(C(=O)O)c(=O)c2cc(N)c(N3CCN(c4nc5ccccc5o4)CC3)cc21` yielded a Selectivity index [1] of 110, a Protection [18] of less than 86% and an EC50 [2] of 0.02 µg/mL (≈ 0.0477 µM). The Selectivity index [4] was 6.5, the EC50 [6] was 0.01 µg/mL (≈ 0.0238 µM) and the CC50 [7] was 0.09 µg/mL (≈ 0.215 µM). For the same compound, the EC50 [8] was 0.0087 µg/mL (≈ 0.0207 µM), the EC50 [9] was 0.04 µg/mL (≈ 0.0954 µM) and the EC50 [10] was 0.01 µg/mL (≈ 0.0238 µM). The CC50 [11] was 1.12 µg/mL (≈ 2.67 µM), the Protection [19] was less than 21% and the CC50 [12] was 2.2 µg/mL (≈ 5.25 µM). It also gave a Selectivity index [13] of 220, a Selectivity index [14] of 26 and a Selectivity index [15] of 11.3.

`Cn1cc(C(=O)O)c(=O)c2cc(N)c(N3CCN(c4cnccn4)CC3)cc21` showed a Selectivity index [1] greater than 500, an EC50 [2] of 0.2 µg/mL (≈ 0.526 µM) and a Selectivity index [4] of 5.7. For the same compound, the EC50 [6] was 0.08 µg/mL (≈ 0.21 µM), the CC50 [7] was 3.98 µg/mL (≈ 10.5 µM) and the EC50 [8] was 1.54 µg/mL (≈ 4.05 µM). It also gave an EC50 [9] of 0.04 µg/mL (≈ 0.105 µM), an EC50 [10] of 0.7 µg/mL (≈ 1.84 µM) and a CC50 [11] of 3.65 µg/mL (≈ 9.59 µM). It also gave a CC50 [12] greater than 100 µg/mL, a Selectivity index [13] greater than 1250 and a Protection [20] of less than 91%. For the same compound, the Protection [21] was less than 55%, the Selectivity index [14] was 81 and the Selectivity index [15] was 2.6.

`Cn1cc(C(=O)O)c(=O)c2cc(N)c(N3CCN(c4ccccc4F)CC3)cc21` gave a Protection [22] of less than 31%, a CC50 [7] greater than 125 µg/mL and an EC50 [8] greater than 125 µg/mL. It also gave a Protection [23] of less than 30% and an EC50 [10] greater than 125 µg/mL.

With `Cn1cc(C(=O)O)c(=O)c2cc(N)c(N3CCN(c4nccs4)CC3)cc21` the Selectivity index [1] was “>=1250”, the Protection [24] was less than 118% and the EC50 [2] was 0.08 µg/mL (≈ 0.208 µM). For the same compound, the Selectivity index [4] was 9, the Protection [25] was less than 83% and the EC50 [6] was 0.06 µg/mL (≈ 0.156 µM). It also gave a CC50 [7] of 1.17 µg/mL (≈ 3.04 µM), an EC50 [8] of 0.08 µg/mL (≈ 0.208 µM) and an EC50 [9] of 0.03 µg/mL (≈ 0.0778 µM). The EC50 [10] was 0.13 µg/mL (≈ 0.337 µM), the CC50 [11] was 1.3 µg/mL (≈ 3.37 µM) and the CC50 [12] was no less than 100 µg/mL. The Selectivity index [13] was “>=1667”, the Selectivity index [14] was 41 and the Selectivity index [15] was 14.6.

For `COc1ccccc1N1CCN(c2cc3c(cc2N)c(=O)c(C(=O)O)cn3C)CC1`, the Protection [26] was less than 27%, the Selectivity index [4] was less than 1 and the Protection [27] was less than 21%. The CC50 [7] was 7.45 µg/mL (≈ 18.2 µM), the EC50 [8] was greater than 7.45 µg/mL and the EC50 [10] was greater than 7.45 µg/mL. It also gave a Selectivity index [15] of less than 1.

In the case of `Cn1cc(C(=O)O)c(=O)c2cc(N)c(N3CCN(c4ccccn4)CC3)cc21`, the Selectivity index [1] is reported as greater than 1667, the EC50 [2] is reported as 0.06 µg/mL (≈ 0.158 µM) and the Selectivity index [4] is reported as “<=2.4”. It also gave an EC50 [6] of 0.03 µg/mL (≈ 0.0791 µM), a CC50 [7] of 0.71 µg/mL (≈ 1.87 µM) and an EC50 [8] of 0.19 µg/mL (≈ 0.501 µM). For the same compound, the EC50 [9] was 0.05 µg/mL (≈ 0.132 µM), the EC50 [10] was no less than 0.29 µg/mL and the Protection [28] was less than 59%. The CC50 [11] was 1.45 µg/mL (≈ 3.82 µM), the CC50 [12] was greater than 100 µg/mL and the Selectivity index [13] was greater than 3333. The Selectivity index [14] was 28, the Protection [29] was less than 64% and the Selectivity index [15] was 3.7.

Work on `Cn1cc(C(=O)O)c(=O)c2cc(N)c(N3CCN(c4nc5ccccc5[nH]4)CC3)cc21` yielded a Protection [30] of less than 1%, a CC50 [7] greater than 125 µg/mL and an EC50 [8] greater than 125 µg/mL. For the same compound, the EC50 [10] was greater than 125 µg/mL and the Protection [31] was 0%.

For `Cn1cc(C(=O)O)c(=O)c2cc(N)c(N3CCN(c4nc5cc(Cl)ccc5s4)CC3)cc21`, the Selectivity index [4] was less than 1, the Protection [32] was less than 8% and the CC50 [7] was 0.0021 µg/mL (≈ 0.00447 µM). The EC50 [8] was greater than 0.0021 µg/mL, the EC50 [10] was greater than 0.0021 µg/mL and the Protection [31] was 3%. The Selectivity index [15] was less than 1.

Reference: ChEMBL document CHEMBL1137226, “Structure modifications of 6-aminoquinolones with potent anti-HIV activity” (J Med Chem, 2004)
